From paper PMC8205030, “Methoxy and bromo scans on N-(5-methoxyphenyl) methoxybenzenesulphonamides reveal potent cytotoxic compounds, especially against the human breast adenocarcinoma MCF7 cell line” (Journal of Enzyme Inhibition and Medicinal Chemistry, 2021)
pIC50: −log10 of the molar value. Where two headings read alike, the source gives them in different places.

Assays:
[1] = system: HeLa (human cervical carcinoma) cells; assay: Cell growth assay (XTT), HeLa; type: cell-based; settings: 72 h drug exposure, read-out: Antiproliferative activity IC50 HeLa
Procedure: (§1) The presence of mycoplasma was routinely checked with MycoAlert kit (Lonza-Cambrex) and only mycoplasma-free cells were used in the experiments. Tumour cell lines were kindly provided by Dr Faustino Mollinedo from Centro de Investigaciones Biológicas Margarita Salas, Madrid, Spain. To determine cell growth, cells in exponential growth phase were seeded (100 µL/well in 96-well plates) with appropriate cell concentration (1.5 × 10^4 cells/mL for MCF7, HeLa and HEK-293 and 3 × 10^4 cells/mL for HT-29) in complete DMEM or RPMI 1640 medium (see above) at 37 °C and 5% CO2 atmosphere. After 24 h incubation, to allow cells to attach to the plates, all compounds were added at 1 µM concentration (10 µL/well in 96-well plates) and the effect on the proliferation was evaluated 72 h post-treatment. Compounds showing antiproliferative effects at tested concentration were selected for IC50 calculation (50% inhibitory concentration compared to the untreated controls) from 10^−5 to 10^−10 M concentration. Nonlinear curves fitting the experimental data were carried out for each compound. […] A freshly prepared mixture solution of XTT labelling reagent with 0.02% (v/v) PMS (N-methyl-dibenzopyrazine methyl sulfate) electron coupling reagent was added to cells (50 µL/well in 96-well plates, the total volume of 160 µL/well) and were incubated during the corresponding time according to each cell line (4 h for MCF7 and HeLa and 6 h for HT-29 and HEK-293) in a humidified atmosphere (37 °C, 5% CO2). The absorbance of the formazan product generated was measured at a test wavelength of 450 nm using a multi-well plate reader (Ultra Evolution, Tecan, Männedorf, Suiza). Compounds were dissolved in DMSO and the final solvent concentrations never exceeded 0.5% (v/v). The control wells included treated cells with 0.5% (v/v) DMSO and the positive control. 10 µM verapamil was included as a control for the HT-29 cell line. Measurements were performed in triplicate, and each experiment was repeated three times.

[2] = system: HT-29 (human colon carcinoma) cells; assay: Cell growth assay (XTT), HT-29, alone or with verapamil; type: cell-based
Procedure: as §1, with “Compounds showing antiproliferative effects at tested concentration were selected for IC50 calculation (50% inhibitory concentration compared to the untreated controls) from 10^−5 to 10^−10 M concentration.” left out

[3] = target: T1, microtubular protein isolated from calf brain (Bos taurus, UniProt P81947+Q6B856); assay: Inhibition of tubulin polymerisation (turbidity); type: biochemical; settings: for TPI % 10 µM: 10 µM compound, 1.5 mg/mL microtubular protein; for pIC50: in vitro tubulin polymerisation inhibition, read-out: TPI IC50
T1 construct: isolated from calf brain according to the modified Shelanski method; from tissue; host or cells: calf brain
T1 sequence (Q6B856 whole entry): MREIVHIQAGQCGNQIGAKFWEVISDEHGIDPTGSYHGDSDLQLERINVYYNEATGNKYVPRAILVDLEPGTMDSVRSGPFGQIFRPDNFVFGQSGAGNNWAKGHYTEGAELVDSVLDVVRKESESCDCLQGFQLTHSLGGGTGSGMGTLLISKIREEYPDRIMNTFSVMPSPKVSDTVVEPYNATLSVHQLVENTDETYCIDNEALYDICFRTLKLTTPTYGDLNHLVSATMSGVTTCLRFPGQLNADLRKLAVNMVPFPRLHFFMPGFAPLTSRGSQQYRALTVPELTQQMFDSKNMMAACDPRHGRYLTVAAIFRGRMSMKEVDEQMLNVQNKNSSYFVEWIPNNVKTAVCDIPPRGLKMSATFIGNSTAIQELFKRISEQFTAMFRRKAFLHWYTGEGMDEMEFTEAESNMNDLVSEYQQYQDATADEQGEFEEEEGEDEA
T1 sequence (P81947 whole entry): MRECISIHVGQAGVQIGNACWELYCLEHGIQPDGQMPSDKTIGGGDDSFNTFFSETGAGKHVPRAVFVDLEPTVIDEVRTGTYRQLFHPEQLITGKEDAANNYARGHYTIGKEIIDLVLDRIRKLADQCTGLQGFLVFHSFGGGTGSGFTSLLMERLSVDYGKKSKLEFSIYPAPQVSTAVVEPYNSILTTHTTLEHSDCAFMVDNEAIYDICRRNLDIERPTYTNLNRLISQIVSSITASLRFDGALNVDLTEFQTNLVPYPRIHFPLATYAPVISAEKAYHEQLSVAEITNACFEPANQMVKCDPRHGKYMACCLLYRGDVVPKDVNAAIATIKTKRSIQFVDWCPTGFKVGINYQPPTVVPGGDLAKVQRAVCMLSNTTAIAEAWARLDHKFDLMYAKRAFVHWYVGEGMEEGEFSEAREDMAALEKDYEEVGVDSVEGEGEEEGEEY
Procedure: Microtubular protein was isolated from calf brain according to the modified Shelanski method[23]^,[24] by two cycles of temperature-dependent assembly/disassembly and stored at −80 °C. Before each use, protein concentration is determined by Bradford method[25] taking BSA as standard. Tubulin polymerisation was monitored using a Helios α spectrophotometer by measuring the increase in turbidity at 450 nm, caused by a shift from 4 °C to 37 °C, which allows the in vitro microtubular protein to depolymerise and to polymerise, respectively. The assay was carried out in quartz cuvettes containing 1.5 mg/mL microtubular protein and the ligand (except for control cuvette with only DMSO at the same concentration) in a mixture of 0.1 M MES buffer, 1 mM EGTA, 1 mM MgCl2, 1 mM β-ME, and 1.5 mM GTP at pH 6.7 (final volume 500 µL). Cuvettes were preincubated at 20 °C for 30 min, to allow ligand binding to tubulin, and subsequently cooled on ice for 10 min. Then, the experiment starts at 4 °C to establish the initial baseline. The assembly process was initiated by a temperature shift to 37 °C and the turbidity produced by tubulin polymerisation can be measured by an absorbance increase. After reaching a stable plateau, the temperature was switched back to 4 °C to return to the initial absorption values (to confirm the reversible nature of the monitored process and to determine whether or not the microtubular protein has stabilized). The difference in amplitude between the stable plateau and the initial baseline of the curves was taken as the degree of tubulin polymerisation for each experiment. […] All compounds were tested at 10 µM concentration. IC50 values were calculated for compounds that inhibit tubulin polymerisation more than 50% at 10 µM. […] All the measurements were carried out in at least two independent experiments using microtubular protein from different preparations.

[4] = system: MCF7 (human breast carcinoma) cells; assay: Cell growth assay (XTT), MCF7; type: cell-based; settings: for pIC50: Homo sapiens, MCF7, 72 h drug exposure, XTT, read-out: Antiproliferative activity IC50 MCF7
Procedure: as §1

[5] = Homo sapiens, HT-29, 72 h drug exposure, XTT, read-out: Antiproliferative activity IC50 HT-29
[6] = 72 h, in the presence of Pgp/MDR1 inhibitor verapamil (10 µM), read-out: Antiproliferative activity IC50 HT-29 Verap

| Compound | pIC50 [1] | pIC50 [2, 5] | TPI % 10 µM [3] [%] | pIC50 [3] | pIC50 [4] | melting point [°C] | pIC50 [2, 6] | Difference in HT-29 IC50 values from co-treatment with MDR inhibitor ([2]; without vs with verapamil 10 µM) | Fold more potent against MCF7 than against HeLa ([4]; ratio of IC50 values) |
| --- | --- | --- | --- | --- | --- | --- | --- | --- | --- |
| COc1ccc(S(=O)(=O)N(Cc2ccccc2)c2cc(OC)c(OC)cc2Br)cc1 [Compound 18, N-benzyl-N-(2-bromo-4,5-dimethoxyphenyl)-4-methoxybenzenesulphonamide] | < 6.00 | < 6.00 | 38 | < 5.00 | < 6.00 | 114 to 120 |  |  |  |
| COc1ccc(S(=O)(=O)N(CC(=O)O)c2cc(OC)c(Br)cc2OC)cc1 [Compound 29, N-(4-bromo-2,5-dimethoxyphenyl)-N-((4-methoxyphenyl)sulphonyl)glycine] | < 6.00 | < 6.00 | 8 | < 5.00 | < 6.00 | 180 to 184 |  |  |  |
| CCOC(=O)CN(c1cc(OC)c(Br)cc1OC)S(=O)(=O)c1ccc(OC)cc1 [Compound 26, Ethyl N-(4-bromo-2,5-dimethoxyphenyl)-N-((4-methoxyphenyl)sulphonyl)glycinate] | 6.24 | 5.68 | 28 | < 5.00 | 6.15 |  | 6.06 |  |  |
| CCOC(=O)CN(c1cc(OC)c(OC)cc1OC)S(=O)(=O)c1ccc(OC)cc1 [Compound 36, Ethyl N-((4-methoxyphenyl)sulphonyl)-N-(2,4,5-trimethoxyphenyl)glycinate] | < 6.00 | < 6.00 | 0 | < 5.00 | < 6.00 | 127 to 132 |  |  |  |
| CCOC(=O)N(c1cc(OC)c(Br)cc1OC)S(=O)(=O)c1ccc(OC)cc1 [Compound 27, Ethyl (4-bromo-2,5-dimethoxyphenyl)((4-methoxyphenyl)sulphonyl)carbamate] | 6.42 | 6.28 | 44 | < 5.00 | 6.66 |  | 6.77 | higher than 3 fold |  |
| COc1ccc(S(=O)(=O)N(Cc2ccccc2)c2cc(OC)c(OC)cc2OC)cc1 [Compound 37, N-benzyl-4-methoxy-N-(2,4,5-trimethoxyphenyl)benzenesulphonamide] | 6.08 | 5.90 | 7 | < 5.00 |  | 130 to 139 |  |  |  |
| CCOC(=O)CN(c1cc(OC)cc(OC)c1)S(=O)(=O)c1ccc(OC)cc1 [Compound 5, Ethyl N-(3,5-dimethoxyphenyl)-N-((4-methoxyphenyl)sulphonyl)glycinate] | < 6.00 | < 6.00 | 0 | < 5.00 | < 6.00 |  |  |  |  |
| COc1ccc(S(=O)(=O)N(C)c2cc(OC)c(Br)c(OC)c2)cc1 [Compound 8a, N-(4-bromo-3,5-dimethoxyphenyl)-4-methoxy-N-methylbenzenesulphonamide] | 6.30 | 6.31 | 10 | < 5.00 | 7.00 |  | 6.53 |  | 4–7 fold |
| COc1ccc(S(=O)(=O)N(C)c2cc(OC)cc(OC)c2Br)cc1 [Compound 8b, N-(2-bromo-3,5-dimethoxyphenyl)-4-methoxy-N-methylbenzenesulphonamide] | < 6.00 | < 6.00 | 0 | < 5.00 | < 6.00 | 156 to 160 |  |  |  |
| COc1ccc(S(=O)(=O)N(CC2CO2)c2cc(OC)c(Br)cc2OC)cc1 (stereo not drawn) [Compound 28, N-(4-bromo-2,5-dimethoxyphenyl)-4-methoxy-N-(oxiran-2-ylmethyl)benzenesulphonamide] | 6.31 | 6.07 | 32 | < 5.00 |  |  |  |  |  |
| COc1ccc(S(=O)(=O)Nc2cc(OC)c(OC)c(OC)c2)cc1 [TMP[41], N-(3,4,5-trimethoxyphenyl)-4-methoxyphenylsulphonamide, reference compound] | 6.62 |  |  |  |  |  | 6.01 |  |  |
| CCOC(=O)CN(c1cc(OC)c(OC)cc1Br)S(=O)(=O)c1ccc(OC)cc1 [Compound 17, Ethyl N-(2-bromo-4,5-dimethoxyphenyl)-N-((4-methoxyphenyl)sulphonyl)glycinate] | < 6.00 | < 6.00 | 0 | < 5.00 | < 6.00 | 116 to 126 |  |  |  |

More lines, main results first:

| pIC50 [1] | pIC50 [2, 5] | TPI % 10 µM [3] [%] | pIC50 [3] | pIC50 [4] | melting point [°C] | pIC50 [2, 6] | Difference in HT-29 IC50 values from co-treatment with MDR inhibitor ([2]; without vs with verapamil 10 µM) | Compound | Fold more potent against MCF7 than against HeLa ([4]; ratio of IC50 values) |
| --- | --- | --- | --- | --- | --- | --- | --- | --- | --- |
| 6.38 | 6.21 | 0 | < 5.00 |  |  |  |  | CCN(c1cc(OC)c(Br)c(OC)c1)S(=O)(=O)c1ccc(OC)cc1 [Compound 9a, N-(4-bromo-3,5-dimethoxyphenyl)-N-ethyl-4-methoxybenzenesulphonamide] |  |
| < 6.00 | < 6.00 | 0 | < 5.00 | < 6.00 |  |  |  | COc1ccc(S(=O)(=O)N(Cc2ccccc2)c2cc(OC)cc(OC)c2Br)cc1 [Compound 10b, N-benzyl-N-(2-bromo-3,5-dimethoxyphenyl)-4-methoxybenzenesulphonamide] |  |
| 6.41 |  | 69 | 5.36 | 6.74 |  |  |  | COc1ccc(S(=O)(=O)Nc2cccnc2Nc2ccc(O)cc2)cc1 [ABT-751, reference compound] |  |
| 6.51 | 6.35 | 0 | < 5.00 | 6.47 |  | 6.27 |  | COc1ccc(S(=O)(=O)N(Cc2ccccc2)c2cc(OC)c(Br)c(OC)c2)cc1 [Compound 10a, N-benzyl-N-(4-bromo-3,5-dimethoxyphenyl)-4-methoxybenzenesulphonamide] |  |
| < 6.00 | < 6.00 | 0 | < 5.00 | < 6.00 |  |  |  | COc1ccc(S(=O)(=O)N(Cc2ccccc2)c2cc(OC)c(Br)c(OC)c2Br)cc1 [Compound 10c, N-benzyl-N-(2,4-dibromo-3,5-dimethoxyphenyl)-4-methoxybenzenesulphonamide] |  |
